Results from ChEMBL document CHEMBL3414441, “Development of multifunctional, heterodimeric isoindoline-1,3-dione derivatives as cholinesterase and β-amyloid aggregation inhibitors with neuroprotective properties” (Eur J Med Chem, 2015).
pIC50: −log10 of the molar value. The source made the active and inactive calls. The calls are words filed in the database; no cut-off is given here.

Legend:
Acetylcholinesterase [1] = molecular target: Acetylcholinesterase (Electrophorus electricus, UniProt O42275)
Chain of Acetylcholinesterase (Electrophorus electricus, UniProt O42275) (O42275 whole entry): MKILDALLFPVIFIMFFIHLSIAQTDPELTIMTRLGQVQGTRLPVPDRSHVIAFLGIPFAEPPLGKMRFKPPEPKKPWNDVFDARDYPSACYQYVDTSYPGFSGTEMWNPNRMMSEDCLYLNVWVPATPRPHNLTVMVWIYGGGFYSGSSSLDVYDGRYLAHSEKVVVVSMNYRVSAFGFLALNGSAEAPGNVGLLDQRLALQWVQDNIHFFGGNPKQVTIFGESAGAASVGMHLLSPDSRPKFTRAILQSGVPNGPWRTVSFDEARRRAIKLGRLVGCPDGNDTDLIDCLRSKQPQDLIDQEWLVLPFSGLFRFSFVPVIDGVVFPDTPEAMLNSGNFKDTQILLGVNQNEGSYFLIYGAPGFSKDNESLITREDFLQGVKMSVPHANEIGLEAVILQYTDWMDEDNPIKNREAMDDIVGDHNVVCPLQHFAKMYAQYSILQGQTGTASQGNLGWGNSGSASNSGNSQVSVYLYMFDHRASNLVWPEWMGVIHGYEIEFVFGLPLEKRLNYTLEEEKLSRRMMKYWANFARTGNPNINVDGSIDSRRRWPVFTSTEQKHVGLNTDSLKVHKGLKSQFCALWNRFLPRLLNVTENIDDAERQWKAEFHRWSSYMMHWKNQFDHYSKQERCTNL
Description: Inhibition of Electrophorus electricus AChE after 5 mins by Ellman's method

Cholinesterase = Cholinesterase (Equus caballus, UniProt P81908)
Chain of Cholinesterase (P81908 whole entry): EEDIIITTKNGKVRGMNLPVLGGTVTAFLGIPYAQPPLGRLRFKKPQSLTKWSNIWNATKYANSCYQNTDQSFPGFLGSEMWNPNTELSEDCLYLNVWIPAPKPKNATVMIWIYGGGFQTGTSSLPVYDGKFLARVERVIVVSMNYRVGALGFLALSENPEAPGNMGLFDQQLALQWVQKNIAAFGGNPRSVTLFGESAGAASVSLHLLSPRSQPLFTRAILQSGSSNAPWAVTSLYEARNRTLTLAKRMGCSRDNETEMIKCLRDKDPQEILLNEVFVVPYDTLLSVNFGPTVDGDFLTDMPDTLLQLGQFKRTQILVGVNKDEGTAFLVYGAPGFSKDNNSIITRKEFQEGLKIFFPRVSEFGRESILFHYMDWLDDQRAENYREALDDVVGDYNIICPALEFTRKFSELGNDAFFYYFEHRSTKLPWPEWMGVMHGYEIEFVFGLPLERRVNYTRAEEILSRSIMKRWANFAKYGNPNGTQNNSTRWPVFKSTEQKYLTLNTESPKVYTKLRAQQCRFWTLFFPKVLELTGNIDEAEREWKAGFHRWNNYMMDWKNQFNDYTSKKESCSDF
Description: Inhibition of equine serum BuChE after 5 mins by Ellman's method

Acetylcholinesterase [2] = molecular target: T1, Acetylcholinesterase (Homo sapiens, UniProt P22303)
T1 sequence (P22303 whole entry): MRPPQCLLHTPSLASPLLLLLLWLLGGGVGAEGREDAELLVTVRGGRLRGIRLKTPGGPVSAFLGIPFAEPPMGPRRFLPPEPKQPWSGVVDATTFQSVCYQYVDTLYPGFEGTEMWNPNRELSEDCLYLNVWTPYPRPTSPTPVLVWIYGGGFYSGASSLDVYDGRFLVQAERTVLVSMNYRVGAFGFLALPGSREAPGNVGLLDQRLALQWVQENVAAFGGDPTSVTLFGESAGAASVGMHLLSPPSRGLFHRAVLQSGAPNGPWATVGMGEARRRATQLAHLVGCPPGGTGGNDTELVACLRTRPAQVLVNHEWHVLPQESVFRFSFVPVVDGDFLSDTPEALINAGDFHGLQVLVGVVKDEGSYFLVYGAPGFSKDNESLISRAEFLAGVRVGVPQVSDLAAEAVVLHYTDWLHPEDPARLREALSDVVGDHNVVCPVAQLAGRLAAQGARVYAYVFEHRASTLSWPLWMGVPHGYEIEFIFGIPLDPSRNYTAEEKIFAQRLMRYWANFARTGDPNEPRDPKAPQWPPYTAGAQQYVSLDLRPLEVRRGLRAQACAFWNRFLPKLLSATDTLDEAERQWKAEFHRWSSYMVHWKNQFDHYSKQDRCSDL
Description: Inhibition of human recombinant AChE after 5 mins by Ellman's method

[3] = molecular target: Cholinesterase (Equus caballus) (UniProt P81908); test: Inhibition of equine serum BuChE at 10 uM after 5 mins by Ellman's method
Chain of Cholinesterase (Equus caballus) (P81908 whole entry): as the sequence (P81908 whole entry) above

Acetylcholinesterase [4] = molecular target: T1, Acetylcholinesterase; test: Inhibition of human recombinant AChE at 10 uM after 5 mins by Ellman's method
[5] = molecular target: Acetylcholinesterase (Electrophorus electricus) (UniProt O42275); test: Non-competitive inhibition of Electrophorus electricus AChE after 5 mins by Lineweaver-Burk plot analysis
Chain of Acetylcholinesterase (Electrophorus electricus) (O42275 24-633 limits assumed): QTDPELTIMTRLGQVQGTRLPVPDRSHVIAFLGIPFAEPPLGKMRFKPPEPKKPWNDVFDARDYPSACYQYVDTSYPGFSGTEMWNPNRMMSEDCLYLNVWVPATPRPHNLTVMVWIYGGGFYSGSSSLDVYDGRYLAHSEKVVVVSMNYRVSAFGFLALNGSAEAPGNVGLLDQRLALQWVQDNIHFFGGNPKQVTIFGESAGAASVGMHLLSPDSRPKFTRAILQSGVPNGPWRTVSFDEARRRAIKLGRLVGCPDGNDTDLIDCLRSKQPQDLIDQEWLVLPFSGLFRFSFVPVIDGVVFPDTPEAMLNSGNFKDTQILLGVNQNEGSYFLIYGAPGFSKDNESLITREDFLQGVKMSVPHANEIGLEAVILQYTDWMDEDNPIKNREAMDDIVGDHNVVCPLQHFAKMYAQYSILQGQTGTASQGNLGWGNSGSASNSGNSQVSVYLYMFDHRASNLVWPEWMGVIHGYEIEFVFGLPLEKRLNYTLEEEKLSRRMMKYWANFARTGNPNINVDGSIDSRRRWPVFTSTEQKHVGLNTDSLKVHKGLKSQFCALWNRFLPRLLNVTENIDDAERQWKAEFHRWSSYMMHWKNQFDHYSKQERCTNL

[6] = molecular target: Amyloid-beta precursor protein (Homo sapiens) (UniProt P05067); test: Inhibition of human recombinant amyloid beta (1 to 42) self-induced aggregation after 24 hrs by thioflavin-T based fluorometric assay
Chain of Amyloid-beta precursor protein (Homo sapiens) (P05067 whole entry): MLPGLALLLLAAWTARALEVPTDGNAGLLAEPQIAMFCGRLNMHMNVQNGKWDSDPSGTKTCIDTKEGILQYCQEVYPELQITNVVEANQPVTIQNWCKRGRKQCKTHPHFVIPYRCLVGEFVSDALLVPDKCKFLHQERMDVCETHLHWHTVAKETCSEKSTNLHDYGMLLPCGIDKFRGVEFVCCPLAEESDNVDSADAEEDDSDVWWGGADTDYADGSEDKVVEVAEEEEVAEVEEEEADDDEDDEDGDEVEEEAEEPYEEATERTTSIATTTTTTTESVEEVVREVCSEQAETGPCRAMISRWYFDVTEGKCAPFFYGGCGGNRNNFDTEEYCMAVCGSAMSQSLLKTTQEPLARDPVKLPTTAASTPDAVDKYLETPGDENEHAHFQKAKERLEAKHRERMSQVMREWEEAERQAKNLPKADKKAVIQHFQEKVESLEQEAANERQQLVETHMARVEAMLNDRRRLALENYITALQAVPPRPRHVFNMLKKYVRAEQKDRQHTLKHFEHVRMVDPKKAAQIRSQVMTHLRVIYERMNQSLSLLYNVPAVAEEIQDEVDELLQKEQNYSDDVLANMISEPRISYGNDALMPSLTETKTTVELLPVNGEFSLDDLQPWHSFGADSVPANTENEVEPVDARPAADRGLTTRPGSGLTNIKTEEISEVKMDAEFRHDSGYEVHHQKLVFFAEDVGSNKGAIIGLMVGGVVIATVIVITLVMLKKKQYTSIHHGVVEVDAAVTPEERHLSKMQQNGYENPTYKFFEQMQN

[7] = molecular target: Amyloid-beta precursor protein (Homo sapiens) (UniProt P05067); test: Neuroprotective activity in human SH-SY5Y cells assessed as inhibition amyloid beta (1 to 42)-induced cytotoxicity at 1 uM after 48 hrs; format: functional, cell-based; design: scale not given: the % may be the effect or the level left
[8] = molecular target: Amyloid-beta precursor protein (Homo sapiens) (UniProt P05067); test: Neuroprotective activity in human SH-SY5Y cells assessed as inhibition amyloid beta (1 to 42)-induced cytotoxicity at 3 uM after 48 hrs; format: functional, cell-based; design: scale not given: the % may be the effect or the level left
[9] = molecular target: Amyloid-beta precursor protein (Homo sapiens) (UniProt P05067); test: Neuroprotective activity in human SH-SY5Y cells assessed as inhibition amyloid beta (1 to 42)-induced cytotoxicity at 10 uM after 48 hrs; format: functional, cell-based
[10] = Cytotoxicity against human SH-SY5Y cells assessed as cell viability at 0.1 to 10 uM after 48 hrs by MTS assay; format: cell-based
[11] = molecular target: Acetylcholinesterase (Electrophorus electricus) (UniProt O42275); test: Inhibition of Electrophorus electricus AChE at 10 uM after 5 mins by Ellman's method

| Compound | pIC50 (Acetylcholinesterase [1]) | pIC50 (Cholinesterase) | pIC50 (Acetylcholinesterase [2]) | inhibition [3] | also measured |
| --- | --- | --- | --- | --- | --- |
| O=C1c2ccccc2C(=O)N1CCCCCCCNCc1ccc(F)cc1F | 6.77 | 5.73 | 6.42 |  |  |
| O=C1c2ccccc2C(=O)N1CCCCCNCc1ccccc1F | 7.39 |  | 6.77 | < 50% |  |
| O=C1c2ccccc2C(=O)N1CCCCCCCCNCc1cccc(Cl)c1 | 6.14 | 5.83 | 6.16 |  |  |
| O=C1c2ccccc2C(=O)N1CCCCCCCCNCc1ccc(F)cc1 | 5.65 | 5.77 |  |  | inhibition (Acetylcholinesterase [4]): < 50% |
| O=C1c2ccccc2C(=O)N1CCCCCCCNCc1ccccc1F | 6.92 | 5.62 | 6.48 |  |  |
| O=C1c2ccccc2C(=O)N1CCCCCCCNCc1ccccc1 | 6.60 | 5.77 | 6.52 |  |  |
| O=C1c2ccccc2C(=O)N1CCCCCCCCNCc1ccccc1 | 6.11 | 5.91 | 6.30 |  | inhibition [5]: Active |
| O=C1c2ccccc2C(=O)N1CCCCCCNCc1ccccc1 | 6.67 |  | 5.68 | < 50% |  |
| O=C1c2ccccc2C(=O)N1CCCCCCCNCc1ccc(F)cc1 | 6.44 | 5.80 | 6.36 |  |  |
| O=C1c2ccccc2C(=O)N1CCCCNCc1ccc(F)cc1F | 5.09 |  |  | < 50% | inhibition (Acetylcholinesterase [4]): < 50% |
| O=C1c2ccccc2C(=O)N1CCCCCNCc1cccc(Cl)c1 | 7.47 |  | 6.80 | < 50% | inhibition [5]: Active |
| O=C1c2ccccc2C(=O)N1CCCCCCNCc1ccccc1F | 6.95 |  | 6.03 | < 50% |  |
| O=C1c2ccccc2C(=O)N1CCCCNCc1ccccc1F | 5.69 |  |  | < 50% | inhibition (Acetylcholinesterase [4]): < 50% |
| O=C1c2ccccc2C(=O)N1CCCCCCCCNCc1ccc(F)cc1F | 6.22 | 5.98 | 6.24 |  |  |
| O=C1c2ccccc2C(=O)N1CCCCCCCNCc1cccc(Cl)c1 | 6.30 | 5.58 | 6.19 |  |  |
| O=C1c2ccccc2C(=O)N1CCCCCNCc1ccc(F)cc1F | 7.00 |  | 6.59 | < 50% | inhibition [5]: Active |
| O=C1c2ccccc2C(=O)N1CCCCCCNCc1ccc(F)cc1 | 6.16 | 5.04 | 5.50 |  |  |
| O=C1c2ccccc2C(=O)N1CCCCCNCc1ccc(F)cc1 | 6.66 |  | 6.57 | < 50% | inhibition [6]: Dose-dependent effect; Activity [7]: 84.5%; Activity [8]: 76.2%; Activity [9]: inactive; Activity [10]: Non-toxic |
| O=C1c2ccccc2C(=O)N1CCCCNCc1ccc(F)cc1 |  |  |  | < 50% | inhibition (Acetylcholinesterase [4]): < 50%; inhibition [11]: < 50% |
| O=C1c2ccccc2C(=O)N1CCCCNCc1cccc(Cl)c1 | 5.71 |  |  | < 50% | inhibition (Acetylcholinesterase [4]): < 50% |
| O=C1c2ccccc2C(=O)N1CCCCCNCc1ccccc1 | 7.11 |  | 6.69 | < 50% |  |
| O=C1c2ccccc2C(=O)N1CCCCNCc1ccccc1 | 5.28 |  |  | < 50% | inhibition (Acetylcholinesterase [4]): < 50% |
| O=C1c2ccccc2C(=O)N1CCCCCCNCc1ccc(F)cc1F | 6.64 | 5.09 | 5.80 |  | Activity [7]: 80.3%; Activity [8]: 66.5%; Activity [9]: inactive; Activity [10]: Non-toxic |
| O=C1c2ccccc2C(=O)N1CCCCCCNCc1cccc(Cl)c1 | 6.74 | 5.34 | 5.70 |  |  |
| O=C1c2ccccc2C(=O)N1CCCCCCCCNCc1ccccc1F | 6.36 | 5.68 | 6.26 |  |  |
